According to paper PMC5598403 (Toxicology Reports, 2014):

Target: CK2α (protein kinase CK2 catalytic subunit α) (Homo sapiens, UniProt P68400)
Assay: radiometric [γ-32P]ATP kinase assay with synthetic peptide RRRADDSDDDDD
Format: biochemical

CK2α (protein kinase CK2 catalytic subunit α), sequence (P68400 whole entry): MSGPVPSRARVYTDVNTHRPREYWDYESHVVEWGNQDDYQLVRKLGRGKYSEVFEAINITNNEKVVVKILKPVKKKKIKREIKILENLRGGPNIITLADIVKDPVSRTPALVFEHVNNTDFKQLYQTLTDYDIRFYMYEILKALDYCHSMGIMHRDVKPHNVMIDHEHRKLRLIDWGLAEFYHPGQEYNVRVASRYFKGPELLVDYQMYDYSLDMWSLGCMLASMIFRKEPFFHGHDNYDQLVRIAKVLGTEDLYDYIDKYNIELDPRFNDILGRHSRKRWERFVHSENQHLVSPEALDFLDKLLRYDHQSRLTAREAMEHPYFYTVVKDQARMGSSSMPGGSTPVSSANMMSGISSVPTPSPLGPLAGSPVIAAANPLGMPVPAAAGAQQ

## Oc1c(Cl)c(Cl)c(Cl)c(Cl)c1Cl [PCP, pentachlorophenol]
  IC50: 3.73 µM
